Results reported in patent US20260285850A1, “SUBSTITUTED OXAZOLIDINONES AND IMIDAZOLINONES AS HERBICIDES” (FMC CORPORATION, priority 2023, published 2026).

Assays:
Type in all cases: in vivo
[1] = test system: barnyardgrass (Echinochloa crus-galli); assay: Test A preemergence soil spray, visual injury rating 0-100; details: 10 days
In short: (§1)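 Loam-sand pots got test material in surfactant-containing solvent, either as a directed soil spray before emergence or on plants at the one- to two-leaf stage. Visual injury (0-100) was read after ten greenhouse days.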

[2] = test system: blackgrass (Alopecurus myosuroides); assay: as above; details: 10 days
In short: as §1

corn (Zea mays) [3] = assay: as above; details: 10 days
In short: as §1

[4] = test system: green foxtail (Setaria viridis); assay: as above; details: 10 days
In short: as §1

kochia (Bassia scoparia) [5] = assay: as above; details: 10 days
In short: as §1

[6] = test system: oat, wild (wild oat, Avena fatua); assay: as above; details: 10 days
In short: as §1

[7] = test system: palmer (palmer amaranth, palmer pigweed, Amaranthus palmeri); assay: as above; details: 10 days
In short: as §1

[8] = test system: ragweed (common ragweed, Ambrosia artemisiifolia); assay: as above; details: 10 days
In short: as §1

[9] = test system: ryegrass, Italian (italian ryegrass, Lolium multiflorum); assay: as above; details: 10 days
In short: as §1

soybean (Glycine max) [10] = assay: as above; details: 10 days
In short: as §1

[11] = test system: wheat (Triticum aestivum); assay: as above; details: 10 days
In short: as §1

[12] = test system: barnyardgrass (Echinochloa crus-galli); assay: Test A postemergence application, visual injury rating 0-100
In short: as §1

[13] = test system: blackgrass (Alopecurus myosuroides); assay: as above
In short: as §1

corn (Zea mays) [14] = assay: as above
In short: as §1

[15] = test system: galium (catchweed bedstraw, Galium aparine); assay: as above; details: 62 g ai/ha, postemergence, 10 days, 0 = no effect, 100 = complete control
In short: as §1

[16] = test system: green foxtail (Setaria viridis); assay: as above
In short: as §1

[17] = test system: horseweed (Erigeron canadensis); assay: as above
In short: as §1

kochia (Bassia scoparia) [18] = assay: as above
In short: as §1

[19] = test system: oat, wild (wild oat, Avena fatua); assay: as above
In short: as §1

[20] = test system: palmer (palmer amaranth, palmer pigweed, Amaranthus palmeri); assay: as above
In short: as §1

[21] = test system: ragweed (common ragweed, Ambrosia artemisiifolia); assay: as above
In short: as §1

[22] = test system: ryegrass, Italian (italian ryegrass, Lolium multiflorum); assay: as above
In short: as §1

soybean (Glycine max) [23] = assay: as above
In short: as §1

[24] = test system: wheat (Triticum aestivum); assay: as above
In short: as §1

[25] = test system: barnyardgrass (Echinochloa crusgalli); assay: Test B flooded paddy test, visual plant response rating 0-100; details: 250 g ai/ha, Flood, applied to paddy water, evaluated after 13 days
In short: (§2)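 Visual evaluation after 13 days. Water-applied treatment, 3 cm flood depth held constant, plants at 2-leaf stage at treatment.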

[26] = test system: ducksalad (Heteranthera limosa); assay: as above; details: 250 g ai/ha, Flood, applied to paddy water, evaluated after 13 days
In short: as §2

rice (Oryza sativa) = assay: as above; details: 250 g ai/ha, Flood, applied to paddy water, evaluated after 13 days
In short: as §2

[27] = test system: sedge, umbrella (small-flower umbrella sedge, Cyperus difformis); assay: as above; details: 250 g ai/ha, Flood, applied to paddy water, evaluated after 13 days
In short: as §2

[28] = 62 g ai/ha, 0 = no effect, 100 = complete control
[29] = 62 g ai/ha, postemergence, 10 days, 0 = no effect, 100 = complete control
[30] = Postemergence, 16 g ai/ha, greenhouse 10 days, 0 no effect, 100 complete control

Compound: CC1(C(=O)NC2CC=C(C(=O)O)C2)CN(c2cc(F)cc(Cl)c2)C(=O)O1 (stereo not drawn) [Compound 160]
- Barnyardgrass plant response rating ([1]; 16 g ai/ha, 0 to 100 scale): 0
- Barnyardgrass plant response rating (0-100) [1, 28]: 0
- Blackgrass plant response rating ([2]; 16 g ai/ha, 0 to 100 scale): 0
- Blackgrass plant response rating (0-100) [2, 28]: 0
- Corn plant response rating (corn (Zea mays) [3]; 16 g ai/ha, 0 to 100 scale): 0
- Corn plant response rating (0-100) (corn (Zea mays) [3]; [28]): 0
- Foxtail, Green plant response rating ([4]; 16 g ai/ha, 0 to 100 scale): 0
- Foxtail, Green plant response rating (0-100) [4, 28]: 0
- Kochia plant response rating (kochia (Bassia scoparia) [5]; 16 g ai/ha, 0 to 100 scale): 0
- Kochia plant response rating (0-100) (kochia (Bassia scoparia) [5]; [28]): 0
- Oat, Wild plant response rating ([6]; 16 g ai/ha, 0 to 100 scale): 0
- Oat, Wild plant response rating (0-100) [6, 28]: 0
- Pigweed, Palmer plant response rating ([7]; 16 g ai/ha, 0 to 100 scale): 0
- Pigweed, Palmer plant response rating (0-100) [7, 28]: 0
- Ragweed plant response rating ([8]; 16 g ai/ha, 0 to 100 scale): 0
- Ragweed plant response rating (0-100) [8, 28]: 0
- Ryegrass, Italian plant response rating ([9]; 16 g ai/ha, 0 to 100 scale): 0
- Ryegrass, Italian plant response rating (0-100) [9, 28]: 0
- Soybean plant response rating (soybean (Glycine max) [10]; 16 g ai/ha, 0 to 100 scale): 0
- Soybean plant response rating (0-100) (soybean (Glycine max) [10]; [28]): 0
- Wheat plant response rating ([11]; 16 g ai/ha, 0 to 100 scale): 0
- Wheat plant response rating (0-100) [11, 28]: 0
- Barnyardgrass plant response rating (0-100) [12, 29]: 0
- Barnyardgrass plant response rating (0 to 100 scale) [12, 30]: 0
- Blackgrass plant response rating (0-100) [13, 29]: 0
- Blackgrass plant response rating (0 to 100 scale) [13, 30]: 0
- Corn plant response rating (0-100) (corn (Zea mays) [14]; [29]): 0
- Corn plant response rating (0 to 100 scale) (corn (Zea mays) [14]; [30]): 0
- Galium plant response rating (0-100) [15]: 0
- Foxtail, Green plant response rating (0-100) [16, 29]: 0
- Foxtail, Green plant response rating (0 to 100 scale) [16, 30]: 0
- Horseweed plant response rating (0-100) [17, 29]: 0
- Horseweed plant response rating (0 to 100 scale) [17, 30]: 0
- Kochia plant response rating (0-100) (kochia (Bassia scoparia) [18]; [29]): 0
- Kochia plant response rating (0 to 100 scale) (kochia (Bassia scoparia) [18]; [30]): 0
- Oat, Wild plant response rating (0-100) [19, 29]: 0
- Oat, Wild plant response rating (0 to 100 scale) [19, 30]: 0
- Pigweed, Palmer plant response rating (0-100) [20, 29]: 0
- Pigweed, Palmer plant response rating (0 to 100 scale) [20, 30]: 0
- Ragweed plant response rating (0-100) [21, 29]: 0
- Ragweed plant response rating (0 to 100 scale) [21, 30]: 0
- Ryegrass, Italian plant response rating (0-100) [22, 29]: 0
- Ryegrass, Italian plant response rating (0 to 100 scale) [22, 30]: 0
- Soybean plant response rating (0-100) (soybean (Glycine max) [23]; [29]): 0
- Soybean plant response rating (0 to 100 scale) (soybean (Glycine max) [23]; [30]): 0
- Wheat plant response rating (0-100) [24, 29]: 0
- Wheat plant response rating (0 to 100 scale) [24, 30]: 0
- Plant response rating, Barnyardgrass (0 to 100 scale, 0 is no effect and 100 is complete control) [25]: 0
- Plant response rating, Ducksalad (0 to 100 scale, 0 is no effect and 100 is complete control) [26]: 55
- Plant response rating, Rice (0 to 100 scale, 0 is no effect and 100 is complete control) (rice (Oryza sativa)): 0
- Plant response rating, Sedge, Umbrella (0 to 100 scale, 0 is no effect and 100 is complete control) [27]: 25
